Measurements from ChEMBL document CHEMBL1201862, “PubChem BioAssay data set” (2004).
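Exposure lasted 48 hours, with cells grown in 96-well plates and compounds tested at five concentrations. Abbreviation: GI50, concentration required for 50% inhibition of growth.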 Active and inactive are the calls of the source. Cut-off read from the data, not from the text of the source: active = GI50 up to about 1.1 µM and inactive = higher.

Assays:
Test in all cases: NCI anticancer screen, dose series, 48 h
M14 = test system: M14
KM12 = test system: KM12
SF-295 = test system: SF-295
UACC-257 = test system: UACC-257
SF-268 = test system: SF-268
SK-MEL-28 = test system: SK-MEL-28
NCI-H226 = test system: NCI-H226
ACHN = test system: ACHN
NCI-H522 = test system: NCI-H522
SW-620 = test system: SW-620
SNB-75 = test system: SNB-75
CCRF-CEM = test system: CCRF-CEM
HOP-62 = test system: HOP-62
OVCAR-3 = test system: OVCAR-3
TK-10 = test system: TK-10
MOLT-4 = test system: MOLT-4
U-251 = test system: U-251

Measured: GI50

O=C1O[C@@H](c2ccc3c(c2)OCO3)C2C(=O)O[C@@H](c3ccc4c(c3)OCO4)C12 (stereo partly drawn)
inactive: M14 > 100 µM | KM12 > 100 µM | SF-295 > 100 µM | UACC-257 > 100 µM | SF-268 > 100 µM | SK-MEL-28 > 100 µM | NCI-H226 > 100 µM | ACHN > 100 µM | NCI-H522 > 100 µM | SW-620 > 100 µM | SNB-75 83.6 µM | CCRF-CEM > 100 µM | HOP-62 > 100 µM | OVCAR-3 > 100 µM | TK-10 > 100 µM | MOLT-4 > 100 µM | U-251 > 100 µM

COC(=O)C(CCC1(C)OCCO1)=[N+]=[N-]
inactive: M14 > 100 µM | KM12 > 100 µM | SF-295 > 100 µM | UACC-257 > 100 µM | SF-268 > 100 µM | SK-MEL-28 > 100 µM | NCI-H226 > 100 µM | ACHN > 100 µM | NCI-H522 > 100 µM | SW-620 > 100 µM | SNB-75 > 100 µM | CCRF-CEM > 100 µM | HOP-62 > 100 µM | OVCAR-3 > 100 µM | TK-10 > 100 µM | MOLT-4 > 100 µM | U-251 > 100 µM

CN(N=O)C(=O)NC(CCCCNC(=O)OCc1ccccc1)C(=O)OCc1ccccc1 (stereo not drawn)
inactive: M14 19.3 µM | KM12 48.2 µM | SF-295 32.4 µM | UACC-257 16.5 µM | SK-MEL-28 25 µM | NCI-H226 42.9 µM | ACHN 17.7 µM | NCI-H522 13.1 µM | SW-620 27.6 µM | SNB-75 18.8 µM | CCRF-CEM 25 µM | HOP-62 28.5 µM | OVCAR-3 25.3 µM | TK-10 33.4 µM | MOLT-4 26.6 µM | U-251 53.3 µM

Cc1cccc(NC(=O)CSc2nnc(-c3ccc(/N=C\c4ccc(Cl)cc4)cc3)o2)c1
inactive: M14 > 100 µM | KM12 > 100 µM | SF-295 > 100 µM | UACC-257 > 100 µM | SF-268 > 100 µM | SK-MEL-28 > 100 µM | NCI-H226 > 100 µM | ACHN > 100 µM | NCI-H522 38.2 µM | SW-620 > 100 µM | SNB-75 > 100 µM | CCRF-CEM > 100 µM | HOP-62 > 100 µM | TK-10 > 100 µM | MOLT-4 > 100 µM | U-251 > 100 µM

CCOC(=O)C(C)c1cc(C2(C)OCCO2)c(C)o1 (stereo not drawn)
inactive: M14 > 100 µM | KM12 > 100 µM | SF-295 > 100 µM | SF-268 > 100 µM | ACHN > 100 µM | SW-620 > 100 µM | SNB-75 88.9 µM | CCRF-CEM > 100 µM | HOP-62 > 100 µM | OVCAR-3 > 100 µM | TK-10 > 100 µM | MOLT-4 > 100 µM | U-251 > 100 µM

CC1=C(/C=C/C(C)=C/C2CC(N(C)C)=CC(=O)O2)C(C)(C)CCC1 (stereo not drawn)
inactive: M14 14.8 µM | KM12 15.6 µM | SF-295 13 µM | UACC-257 11.9 µM | SF-268 21 µM | SK-MEL-28 16.2 µM | NCI-H226 11.9 µM | ACHN 12.1 µM | NCI-H522 > 10 µM | SW-620 16.2 µM | SNB-75 17.7 µM | CCRF-CEM 3.46 µM | HOP-62 16.9 µM | OVCAR-3 11.5 µM | TK-10 14.1 µM | MOLT-4 3.2 µM | U-251 14.6 µM

Oc1ccc(Br)cc1/C=N/c1ccc(/N=C/c2cc(Br)ccc2O)cc1
inactive: M14 > 100 µM | KM12 > 100 µM | SF-295 > 100 µM | UACC-257 > 100 µM | SF-268 > 100 µM | NCI-H226 > 100 µM | ACHN > 100 µM | SW-620 > 100 µM | SNB-75 > 100 µM | CCRF-CEM > 100 µM | TK-10 > 100 µM | MOLT-4 > 100 µM | U-251 > 100 µM

CCOC(=O)NC(=O)c1cn(CCCCCCCCCCC(=O)NCCCN2CCN(CCCNC(=O)CCCCCCCCCCn3cc(C(=O)NC(=O)OCC)c(=O)[nH]c3=O)CC2)c(=O)[nH]c1=O
inactive: M14 > 10 µM | KM12 > 100 µM | SF-295 > 100 µM | UACC-257 > 100 µM | SF-268 > 100 µM | SK-MEL-28 > 100 µM | ACHN > 100 µM | NCI-H522 > 10 µM | SW-620 > 100 µM | SNB-75 > 100 µM | CCRF-CEM > 100 µM | HOP-62 > 10 µM | OVCAR-3 > 10 µM | TK-10 > 100 µM | MOLT-4 > 100 µM | U-251 > 100 µM

Nc1ccc(/N=N/c2ccc(-c3ccc(/N=N/c4c(S(=O)(=O)O)cc5cc(S(=O)(=O)O)c(/N=N/c6ccc([N+](=O)[O-])cc6)c(N)c5c4O)cc3)cc2)c2cc(S(=O)(=O)O)ccc12
inactive: M14 > 100 µM | KM12 > 100 µM | SF-295 84.5 µM | UACC-257 > 100 µM | SF-268 > 100 µM | SK-MEL-28 > 100 µM | NCI-H226 > 100 µM | ACHN > 100 µM | NCI-H522 > 100 µM | SW-620 > 100 µM | SNB-75 78.9 µM | CCRF-CEM > 100 µM | HOP-62 > 100 µM | OVCAR-3 > 100 µM | TK-10 > 100 µM | MOLT-4 > 100 µM | U-251 > 100 µM

CCCCCCCCCCCCOC(=S)NCCCC
inactive: M14 27.8 µM | KM12 20 µM | SF-295 36.9 µM | UACC-257 16.5 µM | SF-268 26.8 µM | SK-MEL-28 38 µM | NCI-H226 20.1 µM | ACHN 22.4 µM | NCI-H522 14.5 µM | SW-620 17.7 µM | SNB-75 30.3 µM | CCRF-CEM 27.5 µM | HOP-62 35.6 µM | TK-10 35.3 µM | MOLT-4 15.9 µM | U-251 20.2 µM

CCOC(=O)N(c1ccccc1)N(CC)C(=O)/C(C)=N/Nc1ccc([N+](=O)[O-])cc1
inactive: M14 17.9 µM | KM12 15.4 µM | SF-295 16.6 µM | UACC-257 15 µM | SF-268 17.2 µM | SK-MEL-28 17.3 µM | NCI-H226 22 µM | ACHN 17.7 µM | NCI-H522 15.3 µM | SW-620 19.3 µM | SNB-75 18.1 µM | CCRF-CEM 17.2 µM | HOP-62 16.1 µM | OVCAR-3 16.2 µM | MOLT-4 17.7 µM | U-251 15 µM

CCOC(=O)C1=C(C)N(NC(=O)Nc2ccccc2)C(=O)C1=P(c1ccccc1)(c1ccccc1)c1ccccc1
inactive: M14 32.4 µM | KM12 > 10 µM | SF-295 48.4 µM | UACC-257 45.7 µM | SF-268 > 100 µM | NCI-H226 50 µM | ACHN 36.6 µM | NCI-H522 19.4 µM | SW-620 31 µM | SNB-75 38 µM | CCRF-CEM 26.1 µM | HOP-62 > 100 µM | OVCAR-3 36.5 µM | TK-10 56.5 µM | MOLT-4 18.8 µM | U-251 33.9 µM

CNC(=S)/N=C(\N)N(C)C
inactive: M14 > 100 µM | KM12 > 100 µM | SF-295 > 100 µM | UACC-257 > 10 µM | SF-268 > 100 µM | SK-MEL-28 > 100 µM | NCI-H226 > 100 µM | ACHN > 100 µM | NCI-H522 > 100 µM | SW-620 > 100 µM | SNB-75 > 100 µM | HOP-62 > 100 µM | OVCAR-3 > 100 µM | TK-10 > 100 µM | MOLT-4 > 100 µM | U-251 > 100 µM

C/C(=N\NC(N)=S)c1ccc(/C(C)=N/NC(N)=S)cc1
inactive: M14 > 100 µM | KM12 > 100 µM | SF-295 > 100 µM | UACC-257 > 100 µM | SF-268 > 100 µM | SK-MEL-28 > 100 µM | NCI-H226 > 100 µM | ACHN > 100 µM | NCI-H522 > 100 µM | SW-620 > 100 µM | SNB-75 > 100 µM | CCRF-CEM > 100 µM | HOP-62 > 100 µM | OVCAR-3 > 100 µM | TK-10 > 100 µM | MOLT-4 > 100 µM | U-251 > 100 µM

c1ccc(-c2csc3ncn4cnnc4c23)cc1
inactive: M14 > 100 µM | KM12 > 100 µM | SF-295 > 100 µM | SK-MEL-28 > 100 µM | NCI-H226 54.1 µM | ACHN 33.6 µM | NCI-H522 51.1 µM | SW-620 > 100 µM | SNB-75 22.3 µM | CCRF-CEM 85.9 µM | OVCAR-3 > 100 µM | TK-10 84.3 µM | MOLT-4 44.1 µM | U-251 > 100 µM

CC(C)C(=O)N1Cc2cc(Cl)cc(Cl)c2OC(=O)c2ccccc21
inactive: M14 25.8 µM | KM12 32.8 µM | SF-295 26.7 µM | UACC-257 17.2 µM | SF-268 19.6 µM | SK-MEL-28 42.4 µM | NCI-H226 23.1 µM | ACHN 24.5 µM | NCI-H522 21 µM | SW-620 33 µM | SNB-75 30.3 µM | CCRF-CEM 27 µM | HOP-62 31.2 µM | OVCAR-3 22 µM | TK-10 29.7 µM | MOLT-4 22.6 µM
